Measured values: patent US10617709B2, “miRNAs as novel therapeutic adjuvants and biomarkers for the prognosis and treatment of drug resistant breast cancers” (THE BOARD OF REGENTS OF THE UNIVERSITY OF TEXAS SYSTEM, priority 2012, dated 2020)

Tested on: Tumor explants from TNBC patients
Assay: Ex-vivo tumor explant model, Ki67 IHC
Design: species or system human
Settings: for Ki67 levels: paclitaxel 1 μM, 48 hours
Description: To further establish the efficacy of these miRNAs in treating TNBC, we used ex-vivo tumor explant model. Freshly excised breast cancer tissues were dissected into 1 mm^3 specimens, placed on hydrated gelatin sponge in explant media supplemented with hydrocortisone and insulin at 37° C. in the CO2 incubator. Tumor explants from TNBC patients were treated with paclitaxel and tissues were gently removed, fixed in 10% neutral buffered formalin and processed for paraffin blocks. IHC analyses were conducted to determine the Ki67 levels. IHC of surgical specimens and explants reveal that explants retain the tissue architecture and proliferation properties of the original surgical specimen. […] FIG. 15.
Tumor explants growing on the gelatin sponge were treated with either sensitizer miRNA (75 nM) alone or paclitaxel (1 μM) alone or with miRNA (75 nM) and paclitaxel (1 μM) together. […] FIG. 16.

CC(=O)O[C@H]1C(=O)[C@@]2(C)[C@H]([C@H](OC(=O)c3ccccc3)[C@]3(O)C[C@H](OC(=O)[C@H](O)[C@@H](NC(=O)c4ccccc4)c4ccccc4)C(C)=C1C3(C)C)[C@]1(OC(C)=O)CO[C@@H]1C[C@@H]2O [paclitaxel]
response to paclitaxel (Ki67 staining) (advanced stage TNBC explant): not responsive
Ki67 staining (non-relapsed TNBC explant): inhibition of Ki67 staining
Ki67 levels (relapsed / advanced stage TNBC explants, sensitizer miRNA 75 nM): did not result in significant change
Ki67 levels (responsive TNBC (early stage cancer) explants): significant inhibition of Ki67 levels
